Data taken from patent publication US20260201008A1, “SECRETIN-DERIVED GLP1R SELECTIVE AGONISTS” (GUBRA A/S, priority 2023, published 2026).
Where two headings read alike, the source gives them in different places. Numbered stars: 1 amine (or outer) side, 2 acyl side, 3 side chain; on linkers, the order of the positions; unused ones are H or OH. Square brackets hold non-standard residues; d marks the D form. Side chains are listed from the residue outwards. Peptide text beside a SMILES is read from it. * marks the point of attachment. C20 diacid = O=C(O)CCCCCCCCCCCCCCCCCCC(=O)*; γGlu = O=C(O)[C@H](CCC(=O)[*:2])N[*:1]; AEEA = NCCOCCOCC(=O)O; Aib = CC(C)(N)C(=O)O

What was measured:
[1] = Turbidity of crude library peptides (absorbance at 600 nm); type: physicochemical; settings: Physical stability of peptides
Summary of the method: (§1)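 Fibril formation is scored as average ThT fluorescence from duplicate samples monitored for 72 h at 40° C with shaking stress. Turbidity is the absorbance at 600 nm taken before heating. Peptide concentration was 267 μM at pH 4.0 or pH 7.0.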

GLP1R = GLP1R (Homo sapiens, UniProt P43220); assay: hGLP1R potency, cAMP accumulation in CHO-K1 cells stably overexpressing hGLP1R; type: cell-based; parameters: host or cells: CHO-K1; settings: for Selectivity: SCTR EC50/GLP1R EC50 ratio; for EC50: cAMP accumulation, CHO-K1 cells overexpressing hGLP1R; for SCTR EC50/GLP1R EC50 ratio: selectivity for hGLP1R over hSCTR, cAMP accumulation in CHO-K1 cells
GLP1R, sequence (P43220 24-463): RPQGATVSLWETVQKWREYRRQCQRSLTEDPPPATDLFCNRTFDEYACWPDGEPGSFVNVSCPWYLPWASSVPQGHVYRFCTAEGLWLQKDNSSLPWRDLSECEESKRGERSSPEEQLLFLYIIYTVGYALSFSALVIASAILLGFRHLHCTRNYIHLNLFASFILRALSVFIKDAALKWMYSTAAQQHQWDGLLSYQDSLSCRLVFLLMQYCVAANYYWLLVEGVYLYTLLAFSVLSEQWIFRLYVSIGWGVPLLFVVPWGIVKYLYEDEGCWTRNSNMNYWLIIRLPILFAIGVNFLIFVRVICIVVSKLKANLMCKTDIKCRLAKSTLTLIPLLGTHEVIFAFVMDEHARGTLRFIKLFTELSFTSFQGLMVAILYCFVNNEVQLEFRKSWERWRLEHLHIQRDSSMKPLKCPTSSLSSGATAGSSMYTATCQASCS
Summary of the method: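 In the presence of 0.5 mM IBMX, compounds stimulated the cells for 30 minutes at room temperature. Accumulated cAMP was then detected by TR-FRET, with EC50 values fitted by variable-slope nonlinear regression.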

[2] = Fibril formation of crude library peptides (Thioflavin T); type: physicochemical; parameters: key: average ThT fluorescence emission at 480 nm (ex 450 nm), raw units; settings: Physical stability of peptides
Summary of the method: as §1

SCTR = SCTR (Homo sapiens, UniProt P47872); assay: hSCTR potency, cAMP accumulation in CHO-K1 cells stably overexpressing hSCTR; type: cell-based; parameters: alternatively Euroscreen ES-712-AF; FAST-0161L; host or cells: CHO-K1; settings: cAMP accumulation, CHO-K1 cells overexpressing hSCTR
SCTR, sequence (P47872 23-440): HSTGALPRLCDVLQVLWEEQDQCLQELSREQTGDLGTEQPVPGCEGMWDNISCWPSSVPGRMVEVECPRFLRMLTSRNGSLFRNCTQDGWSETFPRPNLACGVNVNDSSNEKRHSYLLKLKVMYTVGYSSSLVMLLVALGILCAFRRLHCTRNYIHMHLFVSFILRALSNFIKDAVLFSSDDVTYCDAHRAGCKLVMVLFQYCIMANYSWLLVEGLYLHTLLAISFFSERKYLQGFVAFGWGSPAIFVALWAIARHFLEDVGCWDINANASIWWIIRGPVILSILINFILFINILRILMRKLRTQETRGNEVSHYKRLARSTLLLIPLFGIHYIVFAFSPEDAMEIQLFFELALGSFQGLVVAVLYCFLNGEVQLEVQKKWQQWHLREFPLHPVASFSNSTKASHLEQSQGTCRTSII
Summary of the method: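 In this Gs cAMP assay, stably transfected CHO-K1 hSCTR cells were stimulated at room temperature for 30 min in IBMX-containing buffer. Time-resolved FRET gave the signal. Replicates were increased when the top concentration changed or EC50 values differed 5-fold.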

[3] = read-out: pEC50 hGLPR1 (converted)
[4] = read-out: pEC50 hSCTR (converted)
[5] = read-out: hGLP1R pEC50 (converted)
[6] = read-out: hSCTR pEC50 (converted)

**Q.** Which “Turbidity (pH 7)” value [1] does the source give for `CC(C)C[C@H](NC(=O)[C@H](Cc1ccccc1)NC(=O)[C@H](CCCNC(=N)N)NC(=O)[C@H](CCC(N)=O)NC(=O)[C@H](C)NC(=O)[C@H](C)NC(=O)[C@H](C)NC(=O)[C@@H](NC(=O)[C@H](CCC(=O)O)NC(=O)[C@H](CCCCNC(=O)COCCOCCNC(=O)COCCOCCNC(=O)CC[C@H](NC(=O)CCCCCCCCCCCCCCCCCCC(=O)O)C(=O)O)NC(=O)[C@H](CC(C)C)NC(=O)[C@H](CCCNC(=N)N)NC(=O)[C@H](CO)NC(=O)[C@@H](NC(=O)[C@H](CC(=O)O)NC(=O)[C@H](CO)NC(=O)[C@@H](NC(=O)[C@H](Cc1ccccc1)NC(=O)[C@@H](NC(=O)CNC(=O)[C@H](CCC(=O)O)NC(=O)C(C)(C)NC(=O)[C@@H](N)Cc1c[nH]cn1)[C@@H](C)O)[C@@H](C)O)C(C)C)[C@@H](C)O)C(=O)N[C@@H](CCC(=O)O)C(=O)N[C@@H](Cc1c[nH]cn1)C(=O)N[C@@H](CC(C)C)C(=O)N[C@H](C(N)=O)C(C)C` [compound 23] (H-H[Aib]EGTFTSDVSRLK([AEEA-AEEA-γGlu-C20 diacid])ETAAAQRFLEHLV-NH2) here?
**A.** 0.08

**Q.** What about the Selectivity (GLP1R) of the same compound?
**A.** 8143

**Q.** What about the EC50 (GLP1R; [3]) of the same compound?
**A.** 0.02 nM

**Q.** What about the Fibril formation [2] of the same compound?
**A.** 7462

**Q.** What about the EC50 (SCTR; [4]) of the same compound?
**A.** 158 nM

**Q.** For `CC(C)C[C@H](NC(=O)[C@H](Cc1ccccc1)NC(=O)[C@H](CCCNC(=N)N)NC(=O)[C@H](CCC(N)=O)NC(=O)[C@H](CC(N)=O)NC(=O)C(C)(C)NC(=O)[C@H](C)NC(=O)[C@H](CCC(=O)O)NC(=O)[C@H](CCC(=O)O)NC(=O)[C@H](CCCCNC(=O)COCCOCCNC(=O)COCCOCCNC(=O)CC[C@H](NC(=O)CCCCCCCCCCCCCCCCCCC(=O)O)C(=O)O)NC(=O)[C@H](CC(C)C)NC(=O)[C@H](Cc1ccc(O)cc1)NC(=O)[C@H](CO)NC(=O)[C@@H](NC(=O)[C@H](CC(=O)O)NC(=O)[C@H](CO)NC(=O)[C@@H](NC(=O)[C@H](Cc1ccccc1)NC(=O)[C@@H](NC(=O)CNC(=O)[C@H](CCC(=O)O)NC(=O)C(C)(C)NC(=O)[C@@H](N)Cc1c[nH]cn1)[C@@H](C)O)[C@@H](C)O)C(C)C)C(=O)N[C@@H](CCC(=O)O)C(=O)N[C@@H](Cc1c[nH]cn1)C(=O)N[C@@H](CC(C)C)C(=O)N[C@H](C(N)=O)C(C)C` [compound 131] (H-H[Aib]EGTFTSDVSYLK([AEEA-AEEA-γGlu-C20 diacid])EEA[Aib]NQRFLEHLV-NH2), which “Turbidity (pH 7)” value [1] is on record?
**A.** 0.09

**Q.** What about the EC50 (GLP1R; [5]) of the same compound?
**A.** 0.00501 nM

**Q.** What about the “SCTR EC50/GLP1R EC50 ratio” value (GLP1R) of the same compound?
**A.** 996093

**Q.** And the Fibril formation [2]?
**A.** 2709

**Q.** And the EC50 (SCTR; [6])?
**A.** 5010 nM

**Q.** With `CC[C@H](C)[C@H](NC(=O)[C@H](Cc1ccccc1)NC(=O)[C@H](CCCNC(=N)N)NC(=O)[C@H](CCC(N)=O)NC(=O)[C@H](CC(C)C)NC(=O)[C@H](C)NC(=O)[C@H](C)NC(=O)CNC(=O)[C@H](CCC(=O)O)NC(=O)[C@H](CC(C)C)NC(=O)[C@H](CC(C)C)NC(=O)[C@H](Cc1ccccc1)NC(=O)[C@H](CO)NC(=O)[C@@H]1CCCN1C(=O)[C@H](CC(=O)O)NC(=O)[C@H](CO)NC(=O)[C@@H](NC(=O)[C@H](Cc1ccccc1)NC(=O)[C@@H](NC(=O)CNC(=O)[C@H](CCC(=O)O)NC(=O)C(C)(C)NC(=O)[C@@H](N)Cc1c[nH]cn1)[C@@H](C)O)[C@@H](C)O)C(=O)N[C@@H](CCC(N)=O)C(=O)N[C@@H](Cc1c[nH]c2ccccc12)C(=O)N[C@@H](CC(C)C)C(=O)N[C@H](C(N)=O)C(C)C` [compound 126] (H-H[Aib]EGTFTSDPSFLLEGAALQRFIQWLV-NH2) as the compound, how does the “Turbidity (pH 7)” value [1] read?
**A.** 0.26

**Q.** What about the EC50 (GLP1R; [5]) of the same compound?
**A.** 7.94 nM

**Q.** And the “SCTR EC50/GLP1R EC50 ratio” value (GLP1R)?
**A.** 253

**Q.** And the Fibril formation [2]?
**A.** 41799

**Q.** What about the EC50 (SCTR; [6]) of the same compound?
**A.** 2000 nM

**Q.** What does the source list for `CC(C)C[C@H](NC(=O)[C@H](Cc1ccccc1)NC(=O)[C@H](CCCNC(=N)N)NC(=O)[C@H](CCC(N)=O)NC(=O)[C@H](CO)NC(=O)[C@H](C)NC(=O)[C@H](C)NC(=O)[C@@H](NC(=O)[C@H](CCC(=O)O)NC(=O)[C@H](CCCCNC(=O)COCCOCCNC(=O)COCCOCCNC(=O)CC[C@H](NC(=O)CCCCCCCCCCCCCCCCCCC(=O)O)C(=O)O)NC(=O)[C@H](CC(C)C)NC(=O)[C@H](CCCNC(=N)N)NC(=O)[C@H](CO)NC(=O)[C@@H](NC(=O)[C@H](CC(=O)O)NC(=O)[C@H](CO)NC(=O)[C@@H](NC(=O)[C@H](Cc1ccccc1)NC(=O)[C@@H](NC(=O)CNC(=O)[C@H](CCC(=O)O)NC(=O)C(C)(C)NC(=O)[C@@H](N)Cc1c[nH]cn1)[C@@H](C)O)[C@@H](C)O)C(C)C)[C@@H](C)O)C(=O)N[C@@H](CCC(=O)O)C(=O)N[C@@H](Cc1c[nH]cn1)C(=O)N[C@@H](CC(C)C)C(=O)N[C@H](C(N)=O)C(C)C` [compound 71] (H-H[Aib]EGTFTSDVSRLK([AEEA-AEEA-γGlu-C20 diacid])ETAASQRFLEHLV-NH2)?
**A.** Turbidity (pH 7) [1]: 0.08; Selectivity (GLP1R): 13611; EC50 (GLP1R; [3]): 0.0631 nM; Fibril formation [2]: 231646; EC50 (SCTR; [4]): 1000 nM

**Q.** For `CC(C)C[C@H](NC(=O)[C@H](Cc1ccccc1)NC(=O)[C@H](CCCNC(=N)N)NC(=O)[C@H](CCC(N)=O)NC(=O)[C@H](C)NC(=O)[C@H](C)NC(=O)[C@H](C)NC(=O)[C@H](CCC(=O)O)NC(=O)[C@H](CCC(=O)O)NC(=O)[C@H](CCCCNC(=O)COCCOCCNC(=O)COCCOCCNC(=O)CC[C@H](NC(=O)CCCCCCCCCCCCCCCCCCC(=O)O)C(=O)O)NC(=O)[C@H](CC(C)C)NC(=O)[C@H](CCCNC(=N)N)NC(=O)[C@H](CO)NC(=O)[C@@H](NC(=O)[C@H](CC(=O)O)NC(=O)[C@H](CO)NC(=O)[C@@H](NC(=O)[C@H](Cc1ccccc1)NC(=O)[C@@H](NC(=O)CNC(=O)[C@H](CCC(=O)O)NC(=O)C(C)(C)NC(=O)[C@@H](N)Cc1c[nH]cn1)[C@@H](C)O)[C@@H](C)O)C(C)C)C(=O)N[C@@H](CCC(=O)O)C(=O)N[C@@H](Cc1c[nH]cn1)C(=O)N[C@@H](CC(C)C)C(=O)N[C@H](C(N)=O)C(C)C` [compound 60] (H-H[Aib]EGTFTSDVSRLK([AEEA-AEEA-γGlu-C20 diacid])EEAAAQRFLEHLV-NH2), which “Turbidity (pH 7)” value [1] is on record?
**A.** 0.09

**Q.** What about the Selectivity (GLP1R) of the same compound?
**A.** 9419

**Q.** What about the EC50 (GLP1R; [3]) of the same compound?
**A.** 0.0316 nM

**Q.** And the Fibril formation [2]?
**A.** 11873

**Q.** And the EC50 (SCTR; [4])?
**A.** 251 nM

**Q.** What does the source list for `CC[C@H](C)[C@H](NC(=O)[C@H](CC(=O)O)NC(=O)[C@H](CO)NC(=O)[C@@H](NC(=O)[C@H](Cc1ccccc1)NC(=O)[C@@H](NC(=O)CNC(=O)[C@H](CCC(=O)O)NC(=O)C(C)(C)NC(=O)[C@@H](N)Cc1c[nH]cn1)[C@@H](C)O)[C@@H](C)O)C(=O)N[C@@H](CO)C(=O)N[C@@H](Cc1ccc(O)cc1)C(=O)N[C@@H](CC(C)C)C(=O)N[C@@H](CCCCNC(=O)COCCOCCNC(=O)COCCOCCNC(=O)CC[C@H](NC(=O)CCCCCCCCCCCCCCCCCCC(=O)O)C(=O)O)C(=O)N[C@@H](CCC(=O)O)C(=O)N[C@@H](CCC(=O)O)C(=O)N[C@@H](C)C(=O)NC(C)(C)C(=O)N[C@@H](CC(C)C)C(=O)N[C@@H](CCC(N)=O)C(=O)N[C@@H](CCCNC(=N)N)C(=O)N[C@@H](Cc1ccccc1)C(=O)N[C@@H](CC(C)C)C(=O)N[C@@H](CCC(=O)O)C(=O)N[C@@H](Cc1c[nH]cn1)C(=O)N[C@@H](CC(C)C)C(=O)N[C@H](C(N)=O)C(C)C` [compound 114] (H-H[Aib]EGTFTSDISYLK([AEEA-AEEA-γGlu-C20 diacid])EEA[Aib]LQRFLEHLV-NH2)?
**A.** Turbidity (pH 7) [1]: 0.08; EC50 (GLP1R; [5]): 0.01 nM; SCTR EC50/GLP1R EC50 ratio (GLP1R): 3608; Fibril formation [2]: 4292; EC50 (SCTR; [6]): 39.8 nM

**Q.** For `CC(C)C[C@H](NC(=O)[C@H](Cc1ccccc1)NC(=O)[C@H](CCCNC(=N)N)NC(=O)[C@H](CCC(N)=O)NC(=O)[C@H](C)NC(=O)C(C)(C)NC(=O)[C@H](C)NC(=O)[C@H](CCC(=O)O)NC(=O)[C@H](CCC(=O)O)NC(=O)[C@H](CCCCNC(=O)COCCOCCNC(=O)COCCOCCNC(=O)CC[C@H](NC(=O)CCCCCCCCCCCCCCCCCCC(=O)O)C(=O)O)NC(=O)[C@H](CC(C)C)NC(=O)[C@H](Cc1ccc(O)cc1)NC(=O)[C@H](CO)NC(=O)[C@@H](NC(=O)[C@H](CC(=O)O)NC(=O)[C@H](CO)NC(=O)[C@@H](NC(=O)[C@H](Cc1ccccc1)NC(=O)[C@@H](NC(=O)CNC(=O)[C@H](CCC(=O)O)NC(=O)C(C)(C)NC(=O)[C@@H](N)Cc1c[nH]cn1)[C@@H](C)O)[C@@H](C)O)C(C)C)C(=O)N[C@@H](CCC(=O)O)C(=O)N[C@@H](Cc1c[nH]cn1)C(=O)N[C@@H](CC(C)C)C(=O)N[C@H](C(N)=O)C(C)C` [compound 146] (H-H[Aib]EGTFTSDVSYLK([AEEA-AEEA-γGlu-C20 diacid])EEA[Aib]AQRFLEHLV-NH2), which “Turbidity (pH 7)” value [1] is on record?
**A.** 0.08

**Q.** What about the EC50 (GLP1R; [5]) of the same compound?
**A.** 0.00251 nM

**Q.** What about the “SCTR EC50/GLP1R EC50 ratio” value (GLP1R) of the same compound?
**A.** 789678

**Q.** And the Fibril formation [2]?
**A.** 3918

**Q.** And the EC50 (SCTR; [6])?
**A.** 2000 nM
